The values below come from PMC6851324, “Design and development of stapled transmembrane peptides that disrupt the activity of G-protein–coupled receptor oligomers” (The Journal of Biological Chemistry, 2019).

Where a SMILES comes first, the peptide text is derived from it. Bridges are numbered along the chain shown (N, C = ends). Where no end group is shown, it is not given here. [ ]: non-standard residue; d: D form. S5 = C=CCCC[C@](C)(N)C(=O)O; Nle = CCCC[C@H](N)C(=O)O Where only a bound is given, the exact number is not on record here.

The term half-life denotes how long it takes for the measured level to halve.

The data set can be described thus: Stability in mouse serum. As to conditions: 11.1 μM peptide, fresh nonsterile mouse serum (200 μl serum + 25 μl peptide solution, pH 7.5 buffer with 10% DMSO), 37 °C, quench 15% TCA in acetonitrile, HPLC, n = 3; read-out: Half-life (hours), mouse serum (converted). The class given is in vitro ADME. How it is done:
Figure 4. Biophysical analysis of stapled peptides. A, amino acid sequence alignment of the targeted TM regions and disrupting peptides. Cys residues are in the reduced state. Blue bridges indicate the stapled amino acid residues. […] Yields, purity, and MALDI-TOF data are shown for the stapled peptides and negative control. B, CD analysis of 30–50 μM peptides at 20 °C. For proteolytic stability studies, the peptide solution (55.5 μM for trypsin and chymotrypsin and 11.1 μM for serum) was incubated in the presence of 0.55 μg/ml trypsin from porcine pancreas (E), α-chymotrypsin (F), or mouse serum (G) at 37 °C for the indicated times (indicated on the x axis). Data are mean ± S.E. (error bars) (n = 3) percentage of intact peptide normalized to t = 0. Proteolytic half-lives and putative cleavage sites (predicted using the Expasy bioinformatics server's model with a 50% probability of cleavage) are indicated at the bottom of each panel. Positive correlation between helicity and half-life in trypsin/chymotrypsin (C) or serum (D) was determined by two-tailed Pearson's correlation test. TEXT PRINTED IN THE PICTURE: (B) TM7-TAT: Ellipticity (%): 3.4 | (B) TM6-TAT: Ellipticity (%): 18.3 | (B) TM5-TAT: Ellipticity (%): 20.9 | (B) 8: Ellipticity (%): 58.3 | (B) 9: Ellipticity (%): 46.4 | (B) 10: Ellipticity (%): 36.8 | (B) 11: Ellipticity (%): 46 | (E) TM7-TAT: Half-life (min): 21; #Cleavage sites: 8 | (E) TM6-TAT: Half-life (min): 40; #Cleavage sites: 7 | (E) TM5-TAT: Half-life (min): 33; #Cleavage sites: 8 | (E) 8: Half-life (min): 307; #Cleavage sites: 0 | (E) 9: Half-life (min): 178; #Cleavage sites: 0 | (E) 10: Half-life (min): 75; #Cleavage sites: 6 | (E) 11: Half-life (min): 84; #Cleavage sites: 0 | (F) TM7-TAT: Half-life (min): 22; #Cleavage sites: 6 | (F) TM6-TAT: Half-life (min): 32; #Cleavage sites: 7 | (F) TM5-TAT: Half-life (min): 28; #Cleavage sites: 7 | (F) 8: Half-life (min): 425; #Cleavage sites: 4 | (F) 9: Half-life (min): 198; #Cleavage sites: 3 | (F) 10: Half-life (min): 63; #Cleavage sites: 2 | (F) 11: Half-life (min): 79; #Cleavage sites: 4 | (G) TM7-TAT: Half-life (hours): 0.46 | (G) TM6-TAT: Half-life (hours): 0.55 | (G) TM5-TAT: Half-life (hours): 0.81 | (G) 8: Half-life (hours): ≥18 | (G) 9: Half-life (hours): 14.7 | (G) 10: Half-life (hours): 11.7 | (G) 11: Half-life (hours): 5.3 DOUBTS OF THE COPYIST ABOUT THIS PICTURE: Panel A table (Yield, Rt, Purity, [M+H+] calc., [M+H+] Peak Found for 7-11) left out as synthesis and mass-spectrum characterisation data; uncertain whether [M+H+] calc. should count as a molecular weight
Dose–response curves were fitted using a four-parameter logistic nonlinear regression mode. Peptide stability data were fitted using a nonlinear regression mode for dissociation kinetics. All statistical tests, curve fitting, and graphing were performed using GraphPad Prism 8 (GraphPad Software, La Jolla, CA).
To 200 μl of fresh nonsterile mouse serum was added 25 μl of peptide solution (100 μM, dissolved in ammonium bicarbonate buffer, pH 7.5, containing 10% DMSO), and the mixture was incubated at 37 °C. At the specified time, an aliquot of incubation mixture was withdrawn and quenched by the addition of an equal volume of 15% TCA in acetonitrile to precipitate out serum proteins over ice for 30 min. The mixture was then centrifuged at 13,500 rpm for 10 min, and the supernatant was collected and analyzed by HPLC in a similar manner as described previously. The experiment was repeated twice on different days.
With `CCCC[C@H](NC(=O)[C@]1(C)CCC/C=C\CCC[C@](C)(NC(=O)[C@H](Cc2ccccc2)NC(=O)[C@H](CC(C)C)NC(=O)[C@H](CC(C)C)NC(=O)[C@H](CC(C)C)NC(=O)[C@@H](N)C(C)C)C(=O)N[C@@H](C(C)C)C(=O)N[C@@H](Cc2ccc(O)cc2)C(=O)N[C@@H](C)C(=O)N1)C(=O)N[C@@H](Cc1ccc(O)cc1)C(=O)N[C@H](C(=O)N[C@@H](CC(C)C)C(=O)N[C@@H](Cc1c[nH]c2ccccc12)C(N)=O)[C@@H](C)CC` [Peptide 8] (H-VLLLF[S5]VYA[S5][Nle]YILW-NH2; staple (Z) 6-10), the half-life at 11.1 μM was not below 18 h.

For “ETYLMFWIGVTSVLLLFIVYAYMYILWGRKKRRQRRR [TM5-TAT, reference compound]”, the half-life at 11.1 μM was 0.81 h.

Turning to “GRKKRRQRRRKTLVLILVVLIICWGPLLAIMVY [TM6-TAT, reference compound]”, the half-life at 11.1 μM is 0.55 h.
